Our source for the T/C values is PubChem BioAssay AID248 (DTP/NCI, 2004).

The subject of the test is L1210 leukemia ip in BDF1 mice, survival T/C. As to the kind of experiment: NCI In Vivo Anticancer Drug Screen. Data for tumor model L1210 Leukemia (intraperitoneal) in B6D2F1 (BDF1) mice. The following applies: endpoint: mean survival time, higher = longer survival. In a few lines:
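Transplanted-tumor mice were given test agent; controls received vehicle only. Survival readings from the two groups were divided (treated over control).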

SMILES strings stand for the structures. Values joined by “and” are separate entries in the source; they are usually repeats but may differ in a detail not shown here. Equal values may be shown once. Inconclusive results and toxic doses are left out.

Turning to `O=c1[nH]c(=O)n(C2CC(O)C(CO)O2)cc1I` (stereo not drawn), the T/C reads like this: (dose: 62.5 mg/kg/injection, schedule: Q#A X Z (ip), vehicle: other) 119 % of control; (dose: 125.0 mg/kg/injection, schedule: Q01DX009 (ip), vehicle: saline) 103 % of control and 113 % of control; (dose: 125.0 mg/kg/injection, schedule: Q01DX010 (ip), vehicle: saline) 114 % of control and 117 % of control; (dose: 125.0 mg/kg/injection, schedule: Q03DX Z (ip), vehicle: other) 119 % of control; (dose: 150.0 mg/kg/injection, schedule: Q01DX009 (ip), vehicle: carboxymethylcellulose (CMC)) 167 % of control; (dose: 150.0 mg/kg/injection, schedule: Q01DX009 (ip), vehicle: saline) 114 % of control. Further, the T/C is, setting by setting: (dose: 178.0 mg/kg/injection, schedule: Q01DX Z (ip), vehicle: other) 124 % of control; (dose: 178.0 mg/kg/injection, schedule: Q01DX Z (ip), vehicle: saline) 112 % of control; (dose: 250.0 mg/kg/injection, schedule: Q01DX001 (ip), vehicle: other) 105 % of control and 108 % of control; (dose: 250.0 mg/kg/injection, schedule: Q01DX009 (ip), vehicle: saline) 111 % of control and 118 % of control; (dose: 250.0 mg/kg/injection, schedule: Q01DX010 (ip), vehicle: saline) 114 % of control; (dose: 250.0 mg/kg/injection, schedule: Q03DX Z (ip), vehicle: other) 104 % of control. For the same molecule, the T/C by setting is: (dose: 250.0 mg/kg/injection, schedule: Q07DX Z (ip), vehicle: other) 110 % of control; (dose: 267.0 mg/kg/injection, schedule: Q01DX Z (ip), vehicle: other) 116 % of control; (dose: 267.0 mg/kg/injection, schedule: Q01DX Z (ip), vehicle: saline) 122 % of control; (dose: 300.0 mg/kg/injection, schedule: Q01DX005 (ip), vehicle: carboxymethylcellulose (CMC)) 151 % of control; (dose: 300.0 mg/kg/injection, schedule: Q01DX009 (ip), vehicle: saline) 121 % of control; (dose: 304.0 mg/kg/injection, schedule: Q## X024 (ip), vehicle: carboxymethylcellulose (CMC)) 150 % of control. For the same molecule, the T/C by setting is: (dose: 400.0 mg/kg/injection, schedule: Q01DX Z (ip), vehicle: other) 113 % of control; (dose: 500.0 mg/kg/injection, schedule: Q01DX001 (ip), vehicle: other) 110 % of control and 113 % of control; (dose: 500.0 mg/kg/injection, schedule: Q01DX009 (ip), vehicle: saline) 116 % of control and 120 % of control; (dose: 500.0 mg/kg/injection, schedule: Q01DX010 (ip), vehicle: saline) 111 % of control and 122 % of control; (dose: 500.0 mg/kg/injection, schedule: Q03DX Z (ip), vehicle: other) 116 % of control; (dose: 500.0 mg/kg/injection, schedule: Q07DX Z (ip), vehicle: other) 113 % of control. Moreover, the T/C runs as follows: (dose: 500.0 mg/kg/injection, schedule: Q#A X Z (ip), vehicle: other) 152 % of control; (dose: 600.0 mg/kg/injection, schedule: Q01DX005 (ip), vehicle: carboxymethylcellulose (CMC)) 107 % of control; (dose: 600.0 mg/kg/injection, schedule: Q01DX009 (ip), vehicle: carboxymethylcellulose (CMC)) 92 % of control; (dose: 600.0 mg/kg/injection, schedule: Q## X002 (ip), vehicle: carboxymethylcellulose (CMC)) 158 % of control; (dose: 600.0 mg/kg/injection, schedule: Q## X003 (ip), vehicle: carboxymethylcellulose (CMC)) 170 % of control; (dose: 600.0 mg/kg/injection, schedule: Q## X016 (ip), vehicle: carboxymethylcellulose (CMC)) 158 % of control. For the same molecule, the T/C runs as follows: (dose: 600.0 mg/kg/injection, schedule: Q## X024 (ip), vehicle: carboxymethylcellulose (CMC)) 182 % of control; (dose: 900.0 mg/kg/injection, schedule: Q01DX Z (ip), vehicle: saline) 164 % of control; (dose: 1000.0 mg/kg/injection, schedule: Q01DX001 (ip), vehicle: other) 110 % of control and 116 % of control; (dose: 1000.0 mg/kg/injection, schedule: Q01DX009 (ip), vehicle: saline) 111 % of control and 117 % of control; (dose: 1000.0 mg/kg/injection, schedule: Q01DX010 (ip), vehicle: saline) 111 % of control and 124 % of control; (dose: 1000.0 mg/kg/injection, schedule: Q03DX Z (ip), vehicle: other) 117 % of control. Besides, the T/C runs as follows: (dose: 1000.0 mg/kg/injection, schedule: Q07DX Z (ip), vehicle: other) 105 % of control; (dose: 1200.0 mg/kg/injection, schedule: Q01DX001 (ip), vehicle: carboxymethylcellulose (CMC)) 161 % of control; (dose: 1200.0 mg/kg/injection, schedule: Q## X002 (ip), vehicle: carboxymethylcellulose (CMC)) 187 % of control; (dose: 1200.0 mg/kg/injection, schedule: Q## X003 (ip), vehicle: carboxymethylcellulose (CMC)) 211 % of control; (dose: 1200.0 mg/kg/injection, schedule: Q## X008 (ip), vehicle: carboxymethylcellulose (CMC)) 157 % of control; (dose: 1200.0 mg/kg/injection, schedule: Q## X016 (ip), vehicle: carboxymethylcellulose (CMC)) 167 % of control. Besides, the T/C was 160 % of control (dose: 1200.0 mg/kg/injection, schedule: Q## X024 (ip), vehicle: carboxymethylcellulose (CMC)); 119 % of control (dose: 2000.0 mg/kg/injection, schedule: Q01DX010 (ip), vehicle: saline); 175 % of control (dose: 2400.0 mg/kg/injection, schedule: Q01DX001 (ip), vehicle: carboxymethylcellulose (CMC)); 161 % of control (dose: 2400.0 mg/kg/injection, schedule: Q## X002 (ip), vehicle: carboxymethylcellulose (CMC)); 101 % of control (dose: 2400.0 mg/kg/injection, schedule: Q## X003 (ip), vehicle: carboxymethylcellulose (CMC)); 188 % of control (dose: 2400.0 mg/kg/injection, schedule: Q## X008 (ip), vehicle: carboxymethylcellulose (CMC)). In addition, the T/C (dose: 2400.0 mg/kg/injection, schedule: Q## X016 (ip), vehicle: carboxymethylcellulose (CMC)) is 232 % of control.
`C=C(Br)CNC(=O)CCCl`: the T/C is 109 % of control (dose: 6.25 mg/kg/injection, schedule: Q01DX009 (ip), vehicle: other); 98 % of control (dose: 12.5 mg/kg/injection, schedule: Q01DX009 (ip), vehicle: other); 102 % of control (dose: 25.0 mg/kg/injection, schedule: Q01DX009 (ip), vehicle: other).
In the case of `CC12CC3CC(C)(C1)CC(SCCN)(C3)C2`, the T/C (dose: 100.0 mg/kg/injection, schedule: Q04DX002 (ip), vehicle: saline) was 97 % of control and the T/C (dose: 200.0 mg/kg/injection, schedule: Q04DX002 (ip), vehicle: saline) is 97 % of control.
With `C=C[P+](c1ccccc1)(c1ccccc1)c1ccccc1`, the T/C reads like this: (dose: 0.78 mg/kg/injection, schedule: Q01DX009 (ip), vehicle: saline) 124 % of control; (dose: 1.56 mg/kg/injection, schedule: Q01DX009 (ip), vehicle: saline) 104 % of control; (dose: 1.56 mg/kg/injection, schedule: Q04DX003 (ip), vehicle: saline) 108 % of control; (dose: 3.12 mg/kg/injection, schedule: Q01DX009 (ip), vehicle: saline) 93 % of control; (dose: 3.12 mg/kg/injection, schedule: Q04DX003 (ip), vehicle: saline) 112 % of control; (dose: 5.0 mg/kg/injection, schedule: Q01DX001 (ip), vehicle: saline) 115 % of control. In addition, the T/C was 102 % of control and 104 % of control (dose: 8.88 mg/kg/injection, schedule: Q01DX001 (ip), vehicle: saline); 115 % of control (dose: 10.0 mg/kg/injection, schedule: Q01DX001 (ip), vehicle: saline); 98 % of control (dose: 10.0 mg/kg/injection, schedule: Q04DX003 (ip), vehicle: saline); 102 % of control and 104 % of control (dose: 13.34 mg/kg/injection, schedule: Q01DX001 (ip), vehicle: saline); 102 % of control and 104 % of control (dose: 20.0 mg/kg/injection, schedule: Q01DX001 (ip), vehicle: saline); 92 % of control (dose: 20.0 mg/kg/injection, schedule: Q04DX003 (ip), vehicle: saline). For the same molecule, the T/C is, setting by setting: (dose: 30.0 mg/kg/injection, schedule: Q01DX001 (ip), vehicle: saline) 101 % of control and 105 % of control; (dose: 40.0 mg/kg/injection, schedule: Q01DX001 (ip), vehicle: saline) 97 % of control.
